Data reported in PubChem BioAssay AID1918998 (Molecular Pharmacology Branch, DTP, NCI, 2023).
Several values for one entry are separate records, joined by “and”; a condition that tells them apart may be missing. Identical values can stand only once. Blank lines part the entries; values can stand above or below the molecule they belong to.

Test system: 521955-158-R2-J5-PDC complex spheroid growth
Test: Anticancer human tumor 521955-158-R2-J5-PDC patient-derived pancreatic carcinoma cell line growth inhibition [AhR]
Details: for viability, T/C: stronger effect = lower value
Procedure, shortened: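 Complex tumor spheroids co-cultured with HUVEC and human MSC stroma; AhR antagonists tested in combination with standard-of-care and investigational agents. Top concentration at or near clinical Cmax (else 10 microM), half-log dilutions; growth expressed as percent test/control.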

[1] = curve of first compound, second compound 0.1 µM
[2] = curve of first compound, second compound 0.316 µM
[3] = curve of first compound, second compound 1 µM
[4] = curve of first compound, second compound 3.16 µM
[5] = curve of first compound, second compound 10 µM
[6] = second compound 0.1 µM, first compound 0.00949 µM
[7] = second compound 0.1 µM, first compound 0.03 µM
[8] = second compound 0.1 µM, first compound 0.0949 µM
[9] = second compound 0.1 µM, first compound 0.3 µM
[10] = second compound 0.316 µM, first compound 0.00949 µM
[11] = second compound 0.316 µM, first compound 0.03 µM
[12] = second compound 0.316 µM, first compound 0.0949 µM
[13] = second compound 0.316 µM, first compound 0.3 µM
[14] = second compound 1 µM, first compound 0.00949 µM
[15] = second compound 1 µM, first compound 0.03 µM
[16] = second compound 1 µM, first compound 0.0949 µM
[17] = second compound 1 µM, first compound 0.3 µM
[18] = second compound 3.16 µM, first compound 0.00949 µM
[19] = second compound 3.16 µM, first compound 0.03 µM
[20] = second compound 3.16 µM, first compound 0.0949 µM
[21] = second compound 3.16 µM, first compound 0.3 µM
[22] = second compound 10 µM, first compound 0.00949 µM
[23] = second compound 10 µM, first compound 0.03 µM
[24] = second compound 10 µM, first compound 0.0949 µM
[25] = second compound 10 µM, first compound 0.3 µM
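For viability, T/C in this document: spheroids mix tumor cells with HUVEC endothelium and human MSC stroma; luminescence taken as viability surrogate after a week of drug exposure.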

IC50 (curve of compound): 2.47 µM and 2.11 µM and 2.16 µM
SMILES: CC1COCCN1c1cc(C2(S(C)(=N)=O)CC2)nc(-c2ccnc3[nH]ccc23)n1 (stereo unspecified)
viability, T/C (compound 0.0316 µM): 100% and 91.6% and 125% | viability, T/C (compound 0.1 µM): 108% and 93.5% and 106% | viability, T/C (compound 0.316 µM): 107% and 85.8% and 101% | viability, T/C (compound 1 µM): 114% and 85.9% and 106% | viability, T/C (compound 3.16 µM): 34.1% and 30.7% and 22.6% | viability, T/C (compound 10 µM): 18.6% and 15.7% and 17.3%

IC50 [1]: > 3 µM | IC50 [2]: > 3 µM | IC50 [3]: > 3 µM | IC50 [4]: > 3 µM | IC50 [5]: > 3 µM
SMILES: CCN(c1cc(-c2ccc(CN3CCOCC3)cc2)cc(C(=O)NCc2c(C)cc(C)[nH]c2=O)c1C)C1CCOCC1 + Cc1cncc(-c2nc(NCCc3c[nH]c4ccccc34)c3ncn(C(C)C)c3n2)c1
viability, T/C [6]: 118% | viability, T/C [7]: 112% | viability, T/C [8]: 124% | viability, T/C [9]: 94.7% | viability, T/C (second compound 0.1 µM, first compound 0.949 µM): 117% | viability, T/C (second compound 0.1 µM, first compound 3 µM): 95.9% | viability, T/C [10]: 99.5% | viability, T/C [11]: 108% | viability, T/C [12]: 106% | viability, T/C [13]: 109% | viability, T/C (second compound 0.316 µM, first compound 0.949 µM): 110% | viability, T/C (second compound 0.316 µM, first compound 3 µM): 104% | viability, T/C [14]: 125% | viability, T/C [15]: 130% | viability, T/C [16]: 122% | viability, T/C [17]: 118% | viability, T/C (second compound 1 µM, first compound 0.949 µM): 99.6% | viability, T/C (second compound 1 µM, first compound 3 µM): 115% | viability, T/C [18]: 158% | viability, T/C [19]: 133% | viability, T/C [20]: 130% | viability, T/C [21]: 148% | viability, T/C (second compound 3.16 µM, first compound 0.949 µM): 110% | viability, T/C (second compound 3.16 µM, first compound 3 µM): 124% | viability, T/C [22]: 112% | viability, T/C [23]: 140% | viability, T/C [24]: 111% | viability, T/C [25]: 116% | viability, T/C (second compound 10 µM, first compound 0.949 µM): 84.2% | viability, T/C (second compound 10 µM, first compound 3 µM): 72.3%

IC50 [1]: > 0.3 µM | IC50 [2]: > 0.3 µM | IC50 [3]: > 0.3 µM | IC50 [4]: > 0.3 µM | IC50 [5]: > 0.3 µM
SMILES: Nc1ncn(C2CC(O)C(CO)S2)c(=O)n1 (stereo unspecified) + Cc1ccccc1N=Nc1ccc(NC(=O)c2ccnn2C)c(C)c1
viability, T/C (second compound 0.1 µM, first compound 0.000949 µM): 125% | viability, T/C (second compound 0.1 µM, first compound 0.003 µM): 103% | viability, T/C [6]: 104% | viability, T/C [7]: 104% | viability, T/C [8]: 98% | viability, T/C [9]: 73% | viability, T/C (second compound 0.316 µM, first compound 0.000949 µM): 92.9% | viability, T/C (second compound 0.316 µM, first compound 0.003 µM): 132% | viability, T/C [10]: 107% | viability, T/C [11]: 100% | viability, T/C [12]: 80.5% | viability, T/C [13]: 78.2% | viability, T/C (second compound 1 µM, first compound 0.000949 µM): 100% | viability, T/C (second compound 1 µM, first compound 0.003 µM): 146% | viability, T/C [14]: 108% | viability, T/C [15]: 91% | viability, T/C [16]: 99.9% | viability, T/C [17]: 102% | viability, T/C (second compound 3.16 µM, first compound 0.000949 µM): 135% | viability, T/C (second compound 3.16 µM, first compound 0.003 µM): 145% | viability, T/C [18]: 125% | viability, T/C [19]: 130% | viability, T/C [20]: 105% | viability, T/C [21]: 109% | viability, T/C (second compound 10 µM, first compound 0.000949 µM): 176% | viability, T/C (second compound 10 µM, first compound 0.003 µM): 170% | viability, T/C [22]: 157% | viability, T/C [23]: 139% | viability, T/C [24]: 125% | viability, T/C [25]: 127%

IC50 (curve of compound): > 10 µM and 6.7 µM and 6.43 µM
SMILES: COc1ccc([C@@H](O)c2cc(-c3ncnc4cc(N5CCOCC5)ccc34)c(F)cc2Cl)nn1
viability, T/C (compound 0.0316 µM): 103% and 74.5% and 83% | viability, T/C (compound 0.1 µM): 98.5% and 84.4% and 87.8% | viability, T/C (compound 0.316 µM): 104% and 83.6% and 80.7% | viability, T/C (compound 1 µM): 100% and 66.2% and 81.5% | viability, T/C (compound 3.16 µM): 75.2% and 63.6% and 64.8% | viability, T/C (compound 10 µM): 52% and 43.6% and 40.8%

IC50 (curve of compound): > 3 µM
SMILES: CCN(c1cc(-c2ccc(CN3CCOCC3)cc2)cc(C(=O)NCc2c(C)cc(C)[nH]c2=O)c1C)C1CCOCC1
viability, T/C (compound 0.00949 µM): 104% and 116% and 106% | viability, T/C (compound 0.03 µM): 111% (2×) and 113% | viability, T/C (compound 0.0949 µM): 93.7% and 98.9% and 87% | viability, T/C (compound 0.3 µM): 97.9% and 94.6% and 81.7% | viability, T/C (compound 0.949 µM): 99.9% and 70.8% and 81.8% | viability, T/C (compound 3 µM): 96.3% and 84.7% and 88%
